Source: patent US20230323294A1, “DIFFERENTIATION OF CORTICAL NEURONS FROM HUMAN PLURIPOTENT STEM CELLS” (priority 2016, published 2023)

Legend:
Format in all cases: cell-based, human
AMPA receptors = test: Spontaneous excitatory postsynaptic currents (sEPSCs) recording; conditions: P1S5D+none conditions at day 40
hPSCs [1] = test: Neuronal induction efficiency, intracellular flow cytometry for TUJ1; conditions: day 13
hPSCs [2] = test: Proliferation (pH3) and cell death (cleaved Caspase 3) after P/S/D treatment; conditions: for cell proliferation (phospho-Histone 3): as early as 24 hrs after P/S treatment (day 3)
Source text: (a) Percentage of mitotic cells expressing phospho-histone 3 (pH3) among total cells at one day after P/S/D treatment (day 3 of differentiation). (b) Percentage of apoptotic cells expressing cleaved caspase 3 (CC3) among total cells at one day after P/S/D treatment (day 3 of differentiation). The conditions highlighted in the dashed line boxes in a,b are the P1 dosage groups aligned by ascending order of S concentration. For a,b, N=4 randomly selected photo frames from each of the 2 independent batches of cell cultures. Statistical analysis was carried out using the Dunnett's multiple comparison test to compare each dosage with LSB+X at day 3 of differentiation. […] (c) Summary of grouped results in a following the order of increasing concentration of P, or increasing concentration of S (d). (e) Summary of grouped results in b following the order of increasing concentration of P, or increasing concentration of S (f). […] Black dots represent values from quantification of individual photos frames. […]
Increased total neuron yields were obtained when lower PD concentrations were combined with SU exposure in an effort to balance neuronal induction efficiency and overall cell toxicity. […] To understand whether reduced yield is due to rapid cell cycle exit or direct toxicity, we measured phospho-Histone 3 (pH3) and cleaved Caspase 3 (CC3) as markers of cell proliferation and death, respectively. […]
EdU was added to the cultures at 5 μM for a window of 48 hrs each starting at various time points of differentiation (day 8, 13, 18, 23, 28, 33), and the cells were fixed at day 40 with 4% paraformaldehyde for 20 mins. EdU was detected with the Click-iT EdU Imaging Kit (Invitrogen) according to the specifications of the manufacturer. Quantification of EdU positive and cortical layer marker positive neurons in the EdU labeling experiments, and the quantification of marker positive neurons and total cells in the long-term culture was carried out using ImageJ with ITCN plugin for nuclei quantification, combined with manual counting. […] All quantification results were plotted in Prism (version 6.0, GraphPad).

hPSCs [3] = test: Total cell / neuron yield in culture (FIG. 1G)
Source text: FIGS. 1A-1I depict illustrations, images and graphs showing the rapid induction of cortical neurons from human pluripotent stem cells using a combinatorial small molecule-based protocol. FIG. 1A is a schematic illustration of the pathway manipulations to generate neural crest versus forebrain fates and neural precursor versus accelerated neuronal fates. Protocols for the derivation of SOX10+ neural crest precursor, PAX6+ CNS precursors and BRN3A/ISL1+sensory neurons have been reported while the current invention is focused on a strategy for the rapid induction of cortical neurons. […] FIG. 1C depicts graphs of the time-course quantitative analyses of CNS (PAX6::H2B-GFP, left), NC (SOX10::GFP, middle) and placode (SIX1::H2B-GFP, right) induction under the various protocols. […] FIG. 1F is a graph showing the quantification of the TUJ1 data from FIGS. 1D and 1E at day 13 of differentiation by intracellular flow. […] FIG. 1G depicts graphs of the P and S single and combinatorial dose response analyses based on quantification of the percentages of NESTIN+ and TUJ1+ cells by intracellular flow cytometry (upper), and an estimate of the total neurons in culture per cm^2 (for every hPSC plated at day 0 under P1S5D and P8S10D conditions, ˜0.7 and 0.2 neurons were obtained respectively at day 13). […]

hPSCs [4] = test: qRT-PCR gene expression analysis during differentiation; conditions: forebrain marker, day 13
Protocol: Cells were lysed with Trizol Reagent (Life Technology) and stored in -20° C. Total RNA was extracted using phenol/chloroform and isopropanol precipitation, and dissolved in ddH2O. cDNA was made using the QuantiTech Reverse Transcription Kit (Qiagen). Quantitative RT-PCR was performed using the Mastercycler […]×2 (Eppendorf), and GAPDH was used as the housekeeping gene control for normalization. Delta Delta Ct and fold changes were calculated and results were plotted in Prism (version 6.0, GraphPad).

sodium channel = system: sodium channel
hPSC-derived neurons = test: Survival of cultures maintained in P/S/D in the final differentiation step; conditions: 3 uM
[5] = additional treatment on top of PD and SU

**Q.** How did the “spontaneous excitatory postsynaptic currents (sEPSCs)” value (AMPA receptors) turn out when `NS(=O)(=O)c1cccc2c1c([N+](=O)[O-])cc1nc(O)c(O)nc12` [NBQX] was run?
**A.** inhibited

**Q.** With `O=C(NOC[C@H](O)CO)c1ccc(F)c(F)c1Nc1ccc(I)cc1F` [PD0325901, N-(2,3-dihydroxy-propoxy)-3,4-difluoro-2-(2-fluoro-4-iodo-phenylamino)-benzamide] as the compound, how does the “TUJ1+%” value (hPSCs [1]; added to LSB+X, at high concentrations) read?
**A.** > 50%

**Q.** And the “cell proliferation (phospho-Histone 3)” value (hPSCs [2])?
**A.** reduced cell proliferation

**Q.** And the “yield in total cell numbers” value (hPSCs [3]; at high concentrations, suggesting toxicity)?
**A.** low yield in total cell numbers

**Q.** What about the FOXG1 induction (hPSCs [4]) of the same compound?
**A.** reduced the efficiency of FOXG1 induction

**Q.** With `Cc1c[nH]c(/C=C2\C(=O)Nc3ccccc32)c1CCC(=O)O` [SU5402, 2-[(1,2-Dihydro-2-oxo-3H-indol-3-ylidene)methyl]-4-methyl-1H-pyrrole-3-pr-opanoic acid] as the compound, how does the “cell proliferation (phospho-Histone 3)” value (hPSCs [2]) read?
**A.** reduced cell proliferation

**Q.** What about the “cell death (cleaved Caspase 3)” value (hPSCs [2]; one day after P/S/D treatment (day 3)) of the same compound?
**A.** observed only at high doses

**Q.** `NC1=N[C@H](O)[C@H]2[C@H]3O[C@]4(O)O[C@@H]([C@@H](O)[C@@]2(N1)[C@@H]4O)[C@]3(O)CO` [Tetrodotoxin] was tested. Which “voltage-dependent sodium channel responses” value (sodium channel) did it give?
**A.** blocked

**Q.** How did the “efficiency of neuronal induction” value (hPSCs [1]; [5]) turn out when `C[C@H](NC(=O)Cc1cc(F)cc(F)c1)C(=O)N[C@H](C(=O)OC(C)(C)C)c1ccccc1` [DAPT] was run?
**A.** further increased

**Q.** What about the “effect on overall neuron yield” value (hPSCs [3]; [5]) of the same compound?
**A.** did not negatively affect overall neuron yield

**Q.** For `Cc1c[nH]c(-c2cnc(NCCNc3ccc(C#N)cn3)nc2-c2ccc(Cl)cc2Cl)n1` [CHIR], which “effect on survival of cultures maintained in P/S/D” value (hPSC-derived neurons) is on record?
**A.** strong pro-survival effect
